pEC50, pIC50: −log10 of the molar value.
Key:
[1] = target: T1, Muscarinic acetylcholine receptor M5 (Homo sapiens) (UniProt P08912); assay: Agonist activity at human muscarinic M5 acetylcholine receptor expressed in CHO cells assessed as calcium mobilization at 30 uM by FLIPR assay; assay type: functional, cell-based
T1 sequence (whole entry): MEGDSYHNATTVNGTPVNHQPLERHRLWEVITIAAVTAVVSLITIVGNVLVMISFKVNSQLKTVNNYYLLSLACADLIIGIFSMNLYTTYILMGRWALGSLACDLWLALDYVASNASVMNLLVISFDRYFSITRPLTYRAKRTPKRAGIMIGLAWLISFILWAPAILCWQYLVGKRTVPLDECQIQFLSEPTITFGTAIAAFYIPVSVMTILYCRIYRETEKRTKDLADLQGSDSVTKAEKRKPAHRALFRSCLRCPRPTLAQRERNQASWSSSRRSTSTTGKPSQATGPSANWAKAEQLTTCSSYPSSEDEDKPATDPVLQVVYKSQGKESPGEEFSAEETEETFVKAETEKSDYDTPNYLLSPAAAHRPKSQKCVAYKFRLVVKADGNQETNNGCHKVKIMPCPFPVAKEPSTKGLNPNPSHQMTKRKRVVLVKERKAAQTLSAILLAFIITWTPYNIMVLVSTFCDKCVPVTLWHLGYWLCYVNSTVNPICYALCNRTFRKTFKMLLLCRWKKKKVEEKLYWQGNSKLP

[2] = Permeability of the compound at pH 7.4 by PAMPA method; assay type: physicochemical; details: read-out: permeability
[3] = target: Cytochrome P450 2C9 (Homo sapiens, UniProt P11712); assay: Inhibition of CYP2C9 (unknown origin); assay type: ADME
[4] = target: Aryl hydrocarbon receptor (Homo sapiens, UniProt P35869); assay: Induction of human AhR
[5] = target: T2, Muscarinic acetylcholine receptor M1 (Homo sapiens) (UniProt P11229); assay: Agonist activity at human muscarinic M1 acetylcholine receptor expressed in CHO cells assessed as calcium mobilization by FLIPR assay relative to control; assay type: functional, cell-based
T2 sequence (whole entry): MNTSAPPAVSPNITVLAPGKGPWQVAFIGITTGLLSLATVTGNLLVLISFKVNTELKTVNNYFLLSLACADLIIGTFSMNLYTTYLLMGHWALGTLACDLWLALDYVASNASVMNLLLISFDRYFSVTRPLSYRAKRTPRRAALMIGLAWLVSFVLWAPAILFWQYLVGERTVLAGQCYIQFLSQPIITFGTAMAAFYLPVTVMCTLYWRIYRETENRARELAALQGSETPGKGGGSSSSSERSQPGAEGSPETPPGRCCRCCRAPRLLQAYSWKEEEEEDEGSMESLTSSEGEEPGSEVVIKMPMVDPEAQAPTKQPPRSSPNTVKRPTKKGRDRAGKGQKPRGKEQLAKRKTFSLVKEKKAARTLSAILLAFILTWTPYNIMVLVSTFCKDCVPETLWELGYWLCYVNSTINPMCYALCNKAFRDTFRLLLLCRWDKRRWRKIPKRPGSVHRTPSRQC

[6] = target: Muscarinic acetylcholine receptor M4 (Homo sapiens, UniProt P08173); assay: Partial agonist activity at human muscarinic M4 acetylcholine receptor expressed in CHO cells co-expressing Galpha16 assessed as calcium mobilization by FLIPR assay; assay type: functional, cell-based
[7] = target: Adenosine receptor A2a (Homo sapiens) (UniProt P29274); assay: Agonist activity at adenosine a2a receptor (unknown origin) expressed in CHO cells assessed as calcium mobilization at 3 uM; assay type: functional, cell-based
[8] = target: T3, Adrenergic receptor alpha-1 (Homo sapiens) (UniProt P35348+P25100+P35368); assay: Agonist activity at adrenergic a1 receptor (unknown origin) expressed in CHO cells assessed as calcium mobilization at 3 uM; assay type: functional, cell-based
[9] = target: Alpha-1B adrenergic receptor (Homo sapiens) (UniProt P35368); assay: Agonist activity at adrenergic a1B receptor (unknown origin) expressed in CHO cells assessed as calcium mobilization at 3 uM; assay type: functional, cell-based
[10] = target: Alpha-2A adrenergic receptor (Homo sapiens) (UniProt P08913); assay: Agonist activity at adrenergic a2a receptor (unknown origin) expressed in CHO cells assessed as calcium mobilization at 3 uM; assay type: functional, cell-based
[11] = target: Alpha-2B adrenergic receptor (Homo sapiens) (UniProt P18089); assay: Agonist activity at adrenergic a2B receptor (unknown origin) expressed in CHO cells assessed as calcium mobilization at 3 uM; assay type: functional, cell-based
[12] = target: D(4) dopamine receptor (Homo sapiens) (UniProt P21917); assay: Agonist activity at dopamine D4 receptor (unknown origin) expressed in CHO cells assessed as calcium mobilization at 3 uM; assay type: functional, cell-based
[13] = target: Histamine H1 receptor (Homo sapiens) (UniProt P35367); assay: Agonist activity at histamine H1 receptor (unknown origin) expressed in CHO cells assessed as calcium mobilization at 3 uM; assay type: functional, cell-based
[14] = target: 5-hydroxytryptamine receptor 1E (Homo sapiens) (UniProt P28566); assay: Agonist activity at 5-HT1E receptor (unknown origin) expressed in CHO cells assessed as calcium mobilization at 3 uM; assay type: functional, cell-based
[15] = target: 5-hydroxytryptamine receptor 2A (Homo sapiens) (UniProt P28223); assay: Agonist activity at 5-HT2a receptor (unknown origin) expressed in CHO cells assessed as calcium mobilization at 3 uM; assay type: functional, cell-based
[16] = target: Somatostatin receptor type 2 (Homo sapiens) (UniProt P30874); assay: Agonist activity at SSTR2 receptor (unknown origin) expressed in CHO cells assessed as calcium mobilization at 3 uM; assay type: functional, cell-based
[17] = target: Adenosine receptor A2a (Homo sapiens) (UniProt P29274); assay: Antagonist activity at adenosine a2a receptor (unknown origin) expressed in CHO cells assessed as calcium mobilization at 3 uM; assay type: functional, cell-based
[18] = target: T3, Adrenergic receptor alpha-1 (Homo sapiens); assay: Antagonist activity at adrenergic a1 receptor (unknown origin) expressed in CHO cells assessed as calcium mobilization at 3 uM; assay type: functional, cell-based
[19] = target: D(1B) dopamine receptor (Homo sapiens) (UniProt P21918); assay: Antagonist activity at dopamine D5 receptor (unknown origin) expressed in CHO cells assessed as calcium mobilization at 3 uM; assay type: functional, cell-based
[20] = target: 5-hydroxytryptamine receptor 1E (Homo sapiens) (UniProt P28566); assay: Antagonist activity at 5-HT1E receptor (unknown origin) expressed in CHO cells assessed as calcium mobilization at 3 uM; assay type: functional, cell-based
[21] = target: 5-hydroxytryptamine receptor 1F (Homo sapiens) (UniProt P30939); assay: Antagonist activity at 5-HT1F receptor (unknown origin) expressed in CHO cells assessed as calcium mobilization at 3 uM; assay type: functional, cell-based
[22] = target: 5-hydroxytryptamine receptor 2C (Homo sapiens) (UniProt P28335); assay: Antagonist activity at 5-HT2C receptor (unknown origin) expressed in CHO cells assessed as calcium mobilization at 3 uM; assay type: functional, cell-based
[23] = target: 5-hydroxytryptamine receptor 6 (Homo sapiens) (UniProt P50406); assay: Antagonist activity at 5-HT6 receptor (unknown origin) expressed in CHO cells assessed as calcium mobilization at 3 uM; assay type: functional, cell-based
[24] = target: 5-hydroxytryptamine receptor 7 (Homo sapiens) (UniProt P34969); assay: Antagonist activity at 5-HT7B receptor (unknown origin) expressed in CHO cells assessed as calcium mobilization at 3 uM; assay type: functional, cell-based
[25] = target: P2Y purinoceptor 1 (Homo sapiens) (UniProt P47900); assay: Antagonist activity at P2Y1 receptor (unknown origin) expressed in CHO cells assessed as calcium mobilization at 3 uM; assay type: functional, cell-based

Chain of Adenosine receptor A2a (Homo sapiens) (P29274 whole entry): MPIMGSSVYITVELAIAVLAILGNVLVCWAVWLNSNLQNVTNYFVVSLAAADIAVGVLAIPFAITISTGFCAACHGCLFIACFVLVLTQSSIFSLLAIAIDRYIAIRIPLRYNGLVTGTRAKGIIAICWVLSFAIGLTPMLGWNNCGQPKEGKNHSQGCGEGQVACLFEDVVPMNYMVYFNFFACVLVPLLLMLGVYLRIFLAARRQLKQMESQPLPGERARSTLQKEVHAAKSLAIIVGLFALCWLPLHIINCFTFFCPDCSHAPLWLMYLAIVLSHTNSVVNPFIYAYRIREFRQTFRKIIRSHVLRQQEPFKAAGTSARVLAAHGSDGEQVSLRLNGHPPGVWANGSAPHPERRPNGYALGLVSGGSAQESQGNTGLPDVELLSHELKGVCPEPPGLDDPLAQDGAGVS
Chain of 5-hydroxytryptamine receptor 1E (Homo sapiens) (P28566 whole entry): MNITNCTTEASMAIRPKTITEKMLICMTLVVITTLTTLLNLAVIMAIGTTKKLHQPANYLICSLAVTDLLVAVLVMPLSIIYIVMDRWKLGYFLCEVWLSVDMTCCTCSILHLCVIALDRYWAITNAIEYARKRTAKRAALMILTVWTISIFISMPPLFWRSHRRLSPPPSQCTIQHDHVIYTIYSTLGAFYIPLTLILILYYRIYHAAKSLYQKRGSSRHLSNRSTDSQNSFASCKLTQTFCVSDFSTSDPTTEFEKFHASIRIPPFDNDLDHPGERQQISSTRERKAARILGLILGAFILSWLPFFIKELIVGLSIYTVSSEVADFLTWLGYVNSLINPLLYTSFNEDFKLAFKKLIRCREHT
Chain of Histamine H1 receptor (Homo sapiens) (P35367 whole entry): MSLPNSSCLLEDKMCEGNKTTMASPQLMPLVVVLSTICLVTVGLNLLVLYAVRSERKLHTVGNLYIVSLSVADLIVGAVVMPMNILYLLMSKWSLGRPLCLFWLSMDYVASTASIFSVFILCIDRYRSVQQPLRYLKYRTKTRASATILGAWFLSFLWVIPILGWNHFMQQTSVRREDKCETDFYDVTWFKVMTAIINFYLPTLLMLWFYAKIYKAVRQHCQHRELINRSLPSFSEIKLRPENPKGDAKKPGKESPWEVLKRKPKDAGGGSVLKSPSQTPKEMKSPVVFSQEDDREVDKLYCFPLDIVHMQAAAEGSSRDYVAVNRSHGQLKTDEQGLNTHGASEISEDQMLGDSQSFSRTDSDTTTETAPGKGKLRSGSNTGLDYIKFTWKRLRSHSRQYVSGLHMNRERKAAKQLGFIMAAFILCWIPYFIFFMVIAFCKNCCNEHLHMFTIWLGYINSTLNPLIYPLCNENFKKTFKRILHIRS
Chain of 5-hydroxytryptamine receptor 7 (Homo sapiens) (P34969 whole entry): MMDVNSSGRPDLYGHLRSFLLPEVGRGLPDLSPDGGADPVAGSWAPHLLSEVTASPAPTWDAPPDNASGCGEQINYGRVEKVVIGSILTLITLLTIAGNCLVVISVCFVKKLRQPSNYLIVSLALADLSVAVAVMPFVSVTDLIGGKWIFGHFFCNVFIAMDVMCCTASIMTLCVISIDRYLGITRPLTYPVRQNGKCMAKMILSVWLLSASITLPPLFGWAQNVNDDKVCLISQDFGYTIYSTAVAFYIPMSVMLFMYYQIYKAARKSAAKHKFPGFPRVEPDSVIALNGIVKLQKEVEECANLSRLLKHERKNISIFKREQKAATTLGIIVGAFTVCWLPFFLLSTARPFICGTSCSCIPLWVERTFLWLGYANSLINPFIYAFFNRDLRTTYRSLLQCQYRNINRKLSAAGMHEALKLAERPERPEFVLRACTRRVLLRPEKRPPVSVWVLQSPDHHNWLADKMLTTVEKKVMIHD
Chain of 5-hydroxytryptamine receptor 2C (Homo sapiens) (P28335 whole entry): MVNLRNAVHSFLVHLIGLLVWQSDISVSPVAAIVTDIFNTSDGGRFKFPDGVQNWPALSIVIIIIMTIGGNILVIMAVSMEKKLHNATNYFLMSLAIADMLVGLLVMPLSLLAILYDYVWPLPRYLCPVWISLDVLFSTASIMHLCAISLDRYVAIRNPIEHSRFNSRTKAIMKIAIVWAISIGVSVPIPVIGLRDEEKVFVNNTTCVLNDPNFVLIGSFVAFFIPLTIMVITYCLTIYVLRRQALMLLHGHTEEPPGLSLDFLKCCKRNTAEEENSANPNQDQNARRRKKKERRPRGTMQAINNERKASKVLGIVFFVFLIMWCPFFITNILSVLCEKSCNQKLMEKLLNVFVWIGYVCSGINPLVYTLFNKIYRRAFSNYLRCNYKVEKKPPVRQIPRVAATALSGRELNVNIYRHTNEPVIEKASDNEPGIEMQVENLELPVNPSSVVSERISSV
Chain of 5-hydroxytryptamine receptor 6 (Homo sapiens) (P50406 whole entry): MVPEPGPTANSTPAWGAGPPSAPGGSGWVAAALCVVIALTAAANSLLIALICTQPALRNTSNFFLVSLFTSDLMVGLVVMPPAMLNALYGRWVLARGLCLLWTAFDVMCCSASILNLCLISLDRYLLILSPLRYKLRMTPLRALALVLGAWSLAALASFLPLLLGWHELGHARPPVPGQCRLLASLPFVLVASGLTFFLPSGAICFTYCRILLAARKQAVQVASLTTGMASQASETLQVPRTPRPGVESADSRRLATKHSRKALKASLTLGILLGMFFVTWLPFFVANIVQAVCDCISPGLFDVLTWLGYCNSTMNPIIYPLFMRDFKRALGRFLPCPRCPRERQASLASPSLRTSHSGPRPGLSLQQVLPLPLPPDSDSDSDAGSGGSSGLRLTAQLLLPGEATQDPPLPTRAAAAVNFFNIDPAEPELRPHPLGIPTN
Chain of 5-hydroxytryptamine receptor 2A (Homo sapiens) (P28223 whole entry): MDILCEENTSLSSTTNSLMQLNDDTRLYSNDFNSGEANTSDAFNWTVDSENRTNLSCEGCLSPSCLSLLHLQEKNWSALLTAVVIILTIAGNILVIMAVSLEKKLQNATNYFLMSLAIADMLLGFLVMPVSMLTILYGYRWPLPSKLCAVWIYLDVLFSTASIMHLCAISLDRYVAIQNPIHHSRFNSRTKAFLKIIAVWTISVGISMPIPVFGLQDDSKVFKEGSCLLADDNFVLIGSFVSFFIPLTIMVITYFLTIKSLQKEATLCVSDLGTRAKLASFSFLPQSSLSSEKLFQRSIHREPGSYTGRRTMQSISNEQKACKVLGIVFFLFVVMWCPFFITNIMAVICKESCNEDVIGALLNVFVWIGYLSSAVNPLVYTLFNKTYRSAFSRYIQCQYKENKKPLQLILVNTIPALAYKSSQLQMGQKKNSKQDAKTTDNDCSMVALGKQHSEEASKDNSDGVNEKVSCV
Chain of Somatostatin receptor type 2 (Homo sapiens) (P30874 whole entry): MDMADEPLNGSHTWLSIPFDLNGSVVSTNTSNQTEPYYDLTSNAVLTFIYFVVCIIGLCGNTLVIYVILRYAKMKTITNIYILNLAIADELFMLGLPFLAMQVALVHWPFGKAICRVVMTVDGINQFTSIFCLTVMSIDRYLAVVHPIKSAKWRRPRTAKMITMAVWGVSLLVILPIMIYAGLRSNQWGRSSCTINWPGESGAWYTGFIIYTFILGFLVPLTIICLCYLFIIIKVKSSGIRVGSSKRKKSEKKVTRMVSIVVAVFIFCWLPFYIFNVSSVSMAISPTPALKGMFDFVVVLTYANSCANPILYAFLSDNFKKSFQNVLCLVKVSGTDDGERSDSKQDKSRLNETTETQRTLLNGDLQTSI
Chain of D(1B) dopamine receptor (Homo sapiens) (P21918 whole entry): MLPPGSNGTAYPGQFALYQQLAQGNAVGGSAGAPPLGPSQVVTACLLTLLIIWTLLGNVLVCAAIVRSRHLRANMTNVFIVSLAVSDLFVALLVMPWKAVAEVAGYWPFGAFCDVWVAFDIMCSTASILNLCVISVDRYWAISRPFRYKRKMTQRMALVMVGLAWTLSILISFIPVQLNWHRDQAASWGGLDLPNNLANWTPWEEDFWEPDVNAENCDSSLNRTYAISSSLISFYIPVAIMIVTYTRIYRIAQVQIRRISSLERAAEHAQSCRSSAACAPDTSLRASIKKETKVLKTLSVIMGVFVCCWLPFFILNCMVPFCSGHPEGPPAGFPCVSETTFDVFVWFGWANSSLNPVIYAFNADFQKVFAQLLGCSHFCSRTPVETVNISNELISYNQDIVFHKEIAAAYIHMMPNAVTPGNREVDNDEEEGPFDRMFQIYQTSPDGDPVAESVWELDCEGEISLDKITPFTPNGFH
Chain of D(4) dopamine receptor (Homo sapiens) (P21917 whole entry): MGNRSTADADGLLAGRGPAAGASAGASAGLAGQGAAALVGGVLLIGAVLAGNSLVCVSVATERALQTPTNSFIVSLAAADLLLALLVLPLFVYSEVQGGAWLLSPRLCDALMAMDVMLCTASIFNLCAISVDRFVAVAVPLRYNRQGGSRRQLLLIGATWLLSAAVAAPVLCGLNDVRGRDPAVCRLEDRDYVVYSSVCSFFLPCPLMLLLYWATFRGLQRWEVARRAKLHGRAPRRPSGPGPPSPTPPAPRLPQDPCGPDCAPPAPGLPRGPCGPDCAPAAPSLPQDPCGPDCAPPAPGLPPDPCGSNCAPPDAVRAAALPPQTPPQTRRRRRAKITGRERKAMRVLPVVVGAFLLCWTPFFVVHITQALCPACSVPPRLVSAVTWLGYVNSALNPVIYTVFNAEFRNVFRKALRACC
Chain of Alpha-2B adrenergic receptor (Homo sapiens) (P18089 whole entry): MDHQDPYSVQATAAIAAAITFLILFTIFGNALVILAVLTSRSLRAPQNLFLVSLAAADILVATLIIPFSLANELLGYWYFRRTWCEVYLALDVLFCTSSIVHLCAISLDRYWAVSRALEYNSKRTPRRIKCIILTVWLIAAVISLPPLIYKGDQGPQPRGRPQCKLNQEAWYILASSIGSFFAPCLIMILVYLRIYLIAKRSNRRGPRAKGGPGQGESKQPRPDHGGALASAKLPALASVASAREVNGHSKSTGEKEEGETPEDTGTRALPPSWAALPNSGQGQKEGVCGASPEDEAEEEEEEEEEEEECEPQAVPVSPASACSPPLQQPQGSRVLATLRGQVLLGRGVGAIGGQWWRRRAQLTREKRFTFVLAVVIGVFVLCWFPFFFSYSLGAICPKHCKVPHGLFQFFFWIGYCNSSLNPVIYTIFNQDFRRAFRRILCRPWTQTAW

Q: Which Activity [1] does the source give for `CCOC(=O)N1[C@@H]2CC[C@H]1C[C@H](CN1CC[C@@H](N3Cc4ccccc4NC3=O)C1)C2` here?
A: The Activity was 3%.

Q: What about the Papp [2] of the same compound?
A: The Papp was 53.8 ×10⁻⁶ cm/s.

Q: What about the pIC50 [3] of the same compound?
A: Its pIC50 is under 5.70.

Q: What about the Activity [4] of the same compound?
A: Its Activity is “Not Active”.

Q: And the Activity [5]?
A: Its Activity is 84%.

Q: What about the pEC50 [6] of the same compound?
A: Its pEC50 is 7.07.

Q: And the Activity [7]?
A: Its Activity is 0.38%.

Q: And the Activity [8]?
A: The Activity was -0.04%.

Q: What about the Activity [9] of the same compound?
A: Its Activity is 0.82%.

Q: What about the Activity [10] of the same compound?
A: Its Activity is -0.95%.

Q: What about the Activity [11] of the same compound?
A: Its Activity is -0.18%.

Q: And the Activity [12]?
A: The Activity was -0.14%.

Q: And the Activity [13]?
A: Its Activity is 0.17%.

Q: And the Activity [14]?
A: Its Activity is 0.11%.

Q: What about the Activity [15] of the same compound?
A: The Activity was 0.07%.

Q: What about the Activity [16] of the same compound?
A: The Activity was 0.39%.

Q: And the inhibition [17]?
A: Its inhibition is 2.25%.

Q: What about the inhibition [18] of the same compound?
A: Its inhibition is 5.57%.

Q: What about the inhibition [19] of the same compound?
A: Its inhibition is -3.44%.

Q: What about the inhibition [20] of the same compound?
A: Its inhibition is -0.04%.

Q: What about the inhibition [21] of the same compound?
A: The inhibition was 1.04%.

Q: What about the inhibition [22] of the same compound?
A: Its inhibition is -5.25%.

Q: And the inhibition [23]?
A: Its inhibition is 1.97%.

Q: And the inhibition [24]?
A: Its inhibition is 15.4%.

Q: And the inhibition [25]?
A: Its inhibition is -8.79%.

Source: ChEMBL document CHEMBL3632469, “Discovery of dihydroquinazolinone derivatives as potent, selective, and CNS-penetrant M(1) and M(4) muscarinic acetylcholine receptors agonists” (Bioorg Med Chem Lett, 2015)
